The text below walks through data of patent US20230114241A1, “METHODS OF TREATING EPILEPSY USING THE SAME” (Trevena, Inc., priority 2019, published 2023).

Assay [1] deals with T1, human sphingosine-1-phosphate receptor 1 (S1P1) (Homo sapiens, UniProt P21453). Description: β-Arrestin2 recruitment assay (PathHunter), S1P1 CHO-K1 cells. The assay is classed as cell-based. The settings on record: for Emax: CHO-K1, β-arrestin2 recruitment, efficacy normalized to maximum efficacy of fingolimod, read-out: hS1P1 B-arrestin2 SPAN; for EC50: β-arrestin2 recruitment, potency, read-out: hS1P1 B-arrestin2 pEC50 (converted). Here is the method:
Stable clonal Chinese hamster ovary K1 (CHO-K1) cells co-expressing EA-β-arrestin2 and the human sphingosine-1-phosphate receptor 1 (NM_001400, S1P1) with a C-terminal Prolink™ tag were purchased from DiscoverX corporation (Cat #: 93-0207C2).
Cell lines were cultured in AssayComplete™ Media 6 (DiscoverX Corporation, Cat #: 920018GF2) at 37° C. and 5% CO2 in a humidified CO2 and temperature-controlled incubator. To begin assay plating, cells were washed with Dulbecco's phosphate buffered saline (CellGro, Cat #: 21-031-CV) and lifted from the culturing flask by incubation (37° C., 5 min) with CellStripper (Cellgro, Cat #: 25-056-CI). […] Plated cells were incubated overnight at 37° C. and 5% CO2 in a humidified CO2 and temperature-controlled incubator.
Agonist-promoted β-arrestin2 recruitment to the sphingosine-1-phosphate 1 receptor was determined using the β-arrestin PathHunter® Detection kit (DiscoverX Corporation, Cat #: 93-0001). […] In cells that stably express these fusion proteins, stimulation with a cognate agonist results in the interaction of β-arrestin2 and the Prolink™-tagged GPCR. This allows the complementation of the two β-galactosidase fragments and results in the formation of a functional enzyme with β-galactosidase activity. […] Following a 60 minute incubation at 37° C. and 5% CO2 in a humidified CO2 and temperature-controlled incubator, the components of the β-arrestin PathHunter® Detection kit were added as per the manufacturer's instructions. After an hour incubation at room temperature, plates were analyzed by a BMG PheraStar microplate reader.
These values are normalized to fingolimod, a known agonist of the sphingosine-1-phosphate 1 receptor.
In general terms: Recruitment of arrestin is a read-out of receptor activation apart from second messengers.
Target sequence in this assay (P21453 whole entry): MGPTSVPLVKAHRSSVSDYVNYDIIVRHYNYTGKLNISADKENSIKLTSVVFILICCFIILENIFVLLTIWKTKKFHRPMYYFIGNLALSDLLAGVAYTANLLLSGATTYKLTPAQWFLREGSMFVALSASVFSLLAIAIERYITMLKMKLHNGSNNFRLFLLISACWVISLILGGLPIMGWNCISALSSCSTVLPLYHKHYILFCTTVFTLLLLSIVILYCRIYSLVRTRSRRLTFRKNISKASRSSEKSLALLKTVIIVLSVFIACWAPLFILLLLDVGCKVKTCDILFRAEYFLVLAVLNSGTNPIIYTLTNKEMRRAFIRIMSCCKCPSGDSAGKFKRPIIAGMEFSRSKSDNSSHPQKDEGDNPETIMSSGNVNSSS
Target sequence in this assay (P32121 whole entry partner): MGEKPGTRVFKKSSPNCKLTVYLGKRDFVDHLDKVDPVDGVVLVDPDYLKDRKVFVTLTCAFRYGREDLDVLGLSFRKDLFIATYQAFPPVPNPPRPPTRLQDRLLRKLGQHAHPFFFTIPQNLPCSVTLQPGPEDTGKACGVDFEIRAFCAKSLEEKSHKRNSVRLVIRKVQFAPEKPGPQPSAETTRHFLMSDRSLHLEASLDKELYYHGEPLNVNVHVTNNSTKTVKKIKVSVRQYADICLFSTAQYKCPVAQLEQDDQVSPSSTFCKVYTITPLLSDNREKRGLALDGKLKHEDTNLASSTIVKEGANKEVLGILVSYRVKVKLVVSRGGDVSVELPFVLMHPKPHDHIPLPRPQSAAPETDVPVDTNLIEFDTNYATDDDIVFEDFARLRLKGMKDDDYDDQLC

The target in assay [2] is T1, human sphingosine-1-phosphate receptor 1 (S1P1). Description: Inhibition of cAMP production (HTRF cAMP HiRange), S1P1 CHO-K1 cells. The assay is classed as cell-based. The settings on record: inhibition of cAMP production; for Emax: CHO-K1, efficacy normalized to maximum efficacy of fingolimod, read-out: hS1P1 CAMP SPAN; for EC50: potency, read-out: hS1P1 CAMP pEC50 (converted). In short, it runs like this:
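Intracellular cAMP changes read by TR-FRET (HTRF HiRange, 1 h room temperature) after 30 min compound exposure at 37 °C. Cells: overnight-plated CHO-K1 stably expressing tagged human S1P1 with EA-β-arrestin2. Responses normalized to fingolimod.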
Target sequence in this assay (P21453 whole entry): as the sequence (P21453 whole entry) above
Background: Changes in cAMP serve as a functional read-out for many G protein-coupled receptors.

With `CCC1(CC)CC(=O)c2cc(-c3nc(-c4ccc(S(=O)(=O)N(C)C)cc4)no3)ccc2O1` [Compound 30, 4-(5-(2,2-diethyl-4-oxochroman-6-yl)-1,2,4-oxadiazol-3-yl)-N,N-dimethylbenzene-sulfonamide], in assay [1], the Emax was less than 75% and the EC50 was greater than 10 µM. Moreover, in assay [2], the Emax is less than 75% and the EC50 was greater than 0.316 µM.
Take `CC(C)n1nnc2cc(-c3noc(-c4ccccc4C(F)(F)F)n3)ccc21` [Compound 33, 3-(1-isopropyl-benzotriazol-5-yl)-5-[2-(trifluoromethyl)phenyl]-1,2,4-oxadiazole]: in assay [1], the Emax was greater than 75% and the EC50 was less than 10 µM. In addition, in assay [2], the Emax was greater than 75% and the EC50 was less than 0.316 µM.
`CCC1(CC)CC(=O)c2cc(-c3nc(-c4ccc(C)s4)no3)ccc2O1` [Compound 34, 2,2-diethyl-6-(3-(5-methylthiophen-2-yl)-1,2,4-oxadiazol-5-yl)chroman-4-one]: in assay [1], the Emax is less than 75% and the EC50 is less than 10 µM. Moreover, in assay [2], the Emax was greater than 75% and the EC50 is greater than 0.316 µM.
The like results for `COc1ccccc1-c1nnc(-c2ccc3c(c2)nnn3C(C)C)o1` [Compound 35, 5-[5-(2-methoxyphenyl)-1,3,4-oxadiazol-2-yl]-1-(propan-2-yl)-1H-1,2,3-benzotriazole] were, in that order, greater than 75%, greater than 10 µM, greater than 75% and greater than 0.316 µM.
Consider `CC(C)n1nnc2cc(-c3ncc(-c4ccc(F)cc4)s3)ccc21` [Compound 37, 5-(4-fluorophenyl)-2-(1-isopropyl-benzotriazol-5-yl)thiazole], for which, in assay [1], the Emax is less than 75% and the EC50 was greater than 10 µM. Also, in assay [2], the Emax is less than 75% and the EC50 was greater than 0.316 µM.
For `C=CCn1nc2ccc(-c3nc(-c4ccccc4)no3)cc2n1` [Compound 39, 5-(3-phenyl-1,2,4-oxadiazol-5-yl)-2-(prop-2-en-1-yl)-2H-1,2,3-benzotriazole], the Emax in assay [1] and in assay [2] was less than 75% throughout. Besides, the EC50 is greater than 10 µM in assay [1] and greater than 0.316 µM in assay [2].
In the case of `Brc1ccccc1-c1nc(-c2ccc3c(c2)nnn3C2CCCC2)no1` [Compound 40, 5-(2-bromophenyl)-3-(1-cyclopentyl-1H-benzo[d][1,2,3]triazol-5-yl)-1,2,4-oxadiazole], in assay [1], the Emax is greater than 75% and the EC50 is less than 10 µM. Also, in assay [2], the Emax is greater than 75% and the EC50 was less than 0.316 µM.
In the case of `C=CCn1nnc2cc(-c3noc(-c4ccccc4Br)n3)ccc21` [Compound 42, 3-(1-allyl-1H-benzo[d][1,2,3]triazol-5-yl)-5-(2-bromo-phenyl)-1,2,4-oxadiazole], the Emax in assay [1] and in assay [2] was greater than 75% each time. Further, the figures for the EC50 in assay [1] and in assay [2] were greater than 10 µM and greater than 0.316 µM, respectively.
With `CC(C)n1nnc2cc(-c3noc(-c4ccccc4Br)n3)ccc21` [Compound 43, 5-(2-bromophenyl)-3-(1-isopropyl-1H-benzo[d][1,2,3]triazol-5-yl)-1,2,4-oxadiazole], in assay [1], the Emax is greater than 75% and the EC50 is less than 10 µM. Moreover, in assay [2], the Emax is greater than 75% and the EC50 was less than 0.316 µM.
Take `Cc1nccnc1-c1nc(-c2ccc3c(c2)nnn3C(C)C)no1` [Compound 44, 3-(1-isopropyl-1H-benzo[d][1,2,3]triazol-5-yl)-5-(3-methylpyrazin-2-yl)-1,2,4-oxadiazole]: in assay [1], the Emax is less than 75% and the EC50 was greater than 10 µM. In assay [2], the Emax was less than 75% and the EC50 is greater than 0.316 µM.
On to `Brc1ccccc1-c1nc(-c2ccc3c(c2)nnn3Cc2ccccn2)no1` [Compound 45, 5-(2-bromophenyl)-3-(1-(pyridin-2-ylmethyl)-1H-benzo[d][1,2,3]triazol-5-yl)-1,2,4-oxadiazole], for which the Emax in assay [1] and in assay [2] was less than 75% each time. Moreover, the EC50 is greater than 10 µM in assay [1] and greater than 0.316 µM in assay [2].
On to `Cc1ccsc1-c1noc(-c2ccc3c(c2)nnn3C2CCCC2)n1` [Compound 46, 1-cyclopentyl-5-[3-(3-methylthiophen-2-yl)-1,2,4-oxadiazol-5-yl]-1H-1,2,3-benzotriazole], for which, in assay [1], the Emax is greater than 75% and the EC50 was less than 10 µM. Further, in assay [2], the Emax is greater than 75% and the EC50 is less than 0.316 µM.
`CSc1cccc(-c2nc(-c3ccc4c(c3)nnn4C3CCCC3)no2)c1` [Compound 47, 3-(1-cyclopentyl-1H-benzo[d][1,2,3]triazol-5-yl)-5-(3-(methylthio)phenyl)-1,2,4-oxadiazole]: in assay [1], the Emax is less than 75% and the EC50 is greater than 10 µM. In addition, in assay [2], the Emax was less than 75% and the EC50 is greater than 0.316 µM.
For `Brc1ccccc1-c1nc(-c2ccc3c(c2)nnn3Cc2ccncc2)no1` [Compound 48, 5-(2-bromophenyl)-3-(1-(pyridin-4-ylmethyl)-1H-benzo[d][1,2,3]triazol-5-yl)-1,2,4-oxadiazole], in assay [1], the Emax was less than 75% and the EC50 is greater than 10 µM. Moreover, in assay [2], the Emax was less than 75% and the EC50 is greater than 0.316 µM.
For `CC(C)n1nnc2cc(-c3nc(-c4ccc(COc5ccccc5)cc4)no3)ccc21` [Compound 49, 5-{3-[4-(phenoxy-methyl)phenyl]-1,2,4-oxadiazol-5-yl}-1-(propan-2-yl)-1H-1,2,3-benzotriazole], in assay [1], the Emax is less than 75% and the EC50 was greater than 10 µM. For the same compound, in assay [2], the Emax was less than 75% and the EC50 was greater than 0.316 µM.
Turning to `COc1cnc(-c2nc(-c3ccc4c(c3)nnn4C(C)C)no2)cn1` [Compound 51, 3-(1-isopropyl-1H-benzo[d][1,2,3]triazol-5-yl)-5-(5-methoxypyrazin-2-yl)-1,2,4-oxadiazole], in assay [1], the Emax is less than 75% and the EC50 was greater than 10 µM. In assay [2], the Emax is less than 75% and the EC50 was greater than 0.316 µM.
Take `Brc1ccccc1-c1nc(-c2ccc3c(c2)nnn3Cc2ccccc2)no1` [Compound 52, 3-(1-benzyl-1H-benzo[d][1,2,3]triazol-5-yl)-5-(2-bromophenyl)-1,2,4-oxadiazole]: in assay [1], the Emax is less than 75% and the EC50 is greater than 10 µM. In assay [2], the Emax was less than 75% and the EC50 was greater than 0.316 µM.
For `CCCn1nnc2cc(-c3nc(-c4cccc(C)c4)no3)ccc21` [Compound 54, 5-[3-(3-methylphenyl)-1,2,4-oxadiazol-5-yl]-1-propyl-1H-1,2,3-benzotriazole], the results for the Emax in assay [1] and in assay [2] were greater than 75% and less than 75%, respectively. The results for the EC50 in assay [1] and in assay [2] were greater than 10 µM and greater than 0.316 µM, respectively.
For `CC(C)C(c1ccccc1)c1noc(-c2ccc3c(c2)nnn3C(C)C)n1` (centres unmarked) [Compound 56, 5-[3-(2-methyl-1-phenyl-propyl)-1,2,4-oxadiazol-5-yl]-1-(propan-2-yl)-1H-1,2,3-benzotriazole], in that order: less than 75%, less than 75%, greater than 10 µM and greater than 0.316 µM.
For the compound `O=C1CCOc2ccc(-c3nc(-c4ccncc4)no3)cc21` [Compound 57, 6-[3-(pyridin-4-yl)-1,2,4-oxadiazol-5-yl]-3,4-dihydro-2H-1-benzopyran-4-one], in assay [1], the Emax was less than 75% and the EC50 was greater than 10 µM. In assay [2], the Emax is less than 75% and the EC50 was greater than 0.316 µM.
`CCC1(CC)CC(=O)c2cc(-c3nc(-c4ccc(N(C)C)cc4)no3)ccc2O1` [Compound 60, 6-(3-(4-(dimethyl-amino)phenyl)-1,2,4-oxadiazol-5-yl)-2,2-diethylchroman-4-one]: in assay [1], the Emax was less than 75% and the EC50 was greater than 10 µM. Besides, in assay [2], the Emax was less than 75% and the EC50 is greater than 0.316 µM.
In the case of `CC(C)Oc1ccccc1-c1noc(-c2ccc3c(c2)nnn3C(C)C)n1` [Compound 62, 3-(2-isopropoxyphenyl)-5-(1-isopropyl-1H-benzo[d][1,2,3]triazol-5-yl)-1,2,4-oxadiazole], in assay [1], the Emax was greater than 75% and the EC50 is greater than 10 µM. In addition, in assay [2], the Emax is greater than 75% and the EC50 is greater than 0.316 µM.
As to `CC(C)n1nnc2cc(-c3ncc(-c4ccccc4F)s3)ccc21` [Compound 63, 5-(2-fluorophenyl)-2-(1-isopropyl-1H-benzo[d][1,2,3]triazol-5-yl)thiazole], in assay [1], the Emax was less than 75% and the EC50 was greater than 10 µM. Also, in assay [2], the Emax was less than 75% and the EC50 is less than 0.316 µM.
